Test results from patent US9738634B2, “Heterocyclic amide compound and herbicide” (SYNGENTA PARTICIPATIONS AG, priority 2013, dated 2017).

Columns and labels:
Format in all cases: in vivo
Conditions in all cases: treatment dosage 320 g/ha
black-grass [1] = assay: Test Example 4: weedkilling efficacy by foliar treatment; H: black-grass
Method in brief: (§1)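 Seeds are spot-sown into sterilized diluvial soil and covered with about 1.5 cm of soil. After 14 days' greenhouse growth at 25 to 30° C, plants are sprayed on stems and leaves with diluted emulsion at the stated g/ha rate, then scored at 3 weeks.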

beet [2] = assay: Test Example 3: soil treatment, effect on crop; f: beet
Method in brief: (§2)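 Crop and weed responses were judged three weeks after a uniform surface spray of the water-diluted emulsion at the given g/ha rate. Seeds sat beneath about 1.5 cm of sterilized diluvial soil, and boxes stood in a greenhouse at 25 to 30° C.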

Indian mallow [3] = assay: Test Example 4: weedkilling efficacy by foliar treatment; K: Indian mallow
Method in brief: as §1

directly sown rice [4] = assay: Test Example 4: foliar treatment, effect on crop; b: directly sown rice
Method in brief: as §1

wild oat [5] = assay: Test Example 4: weedkilling efficacy by foliar treatment; G: wild oat
Method in brief: as §1

rapeseed [6] = assay: Test Example 4: foliar treatment, effect on crop; g: rapeseed
Description: (§3) Testing of Weedkilling Efficacy by Foliar Treatment
(§4) Sterilized diluvial soil was introduced into 21 cm long, 13 cm wide, 7 cm deep plastic boxes, and seeds of crabgrass, green foxtail, barnyard grass, wild oat, black-grass, Italian ryegrass, common wind-grass, Indian mallow, redroot pigweed, fig-leafed goosefoot, chickweed, catchweed, birds-eye speedwell, corn, soybean, rice, wheat, beet and rapeseed were each spot-sown, and covered with about 1.5 cm of soil, then the plants were grown in a greenhouse at 25 to 30° C.
(§5) After they had grown for 14 days, emulsions of compounds of the present invention prepared according to compounding example 2 were diluted with water to give the specified dosages, and applied uniformly onto the stem and leaf parts with a small sprayer. 3 weeks after the pesticide treatment the effect on each type of plant was investigated on the basis of the assessment criteria of test example 1.
(§6) A: barnyard grass, B: bulrush, C: oval-leafed pondweed, D: crabgrass, E: green foxtail, F: barnyard grass, G: wild oat, H: black-grass, I: Italian ryegrass, J: common wind-grass, K: Indian mallow, L: redroot pigweed, M: fig-leafed goosefoot, N: chickweed, O: catchweed, p: birds-eye speedwell, a: transplanted rice, b: directly sown rice, c: corn, d: soybean, e: wheat, f: beet, g: rapeseed
(§7) Further, pesticide dosage (g/ha) indicates the concentration regulated such that treatment was with only the stated number of grams (g), when calculated per hectare (ha).

fig-leafed goosefoot [7] = assay: Test Example 4: weedkilling efficacy by foliar treatment; M: fig-leafed goosefoot
Method in brief: as §1

wheat [8] = assay: Test Example 3: soil treatment, effect on crop; e: wheat
Method in brief: as §2

green foxtail [9] = assay: Test Example 3: weedkilling efficacy through soil treatment; E: green foxtail
Method in brief: as §2

bulrush [10] = assay: Test Example 1: weedkilling efficacy, preemergent weed treatment in the submerged state; B: bulrush
Method in brief: (§8)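 Submerged pre-emergence treatment, water-surface application of compound emulsion at g/ha dosages; 4 cm flooded alluvial soil, weeds sown and 2.5-leaf rice transplanted same day. Rated after 3 weeks, greenhouse.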

crabgrass [11] = assay: Test Example 4: weedkilling efficacy by foliar treatment; D: crabgrass
Method in brief: as §1

common wind-grass [12] = assay: Test Example 4: weedkilling efficacy by foliar treatment; J: common wind-grass
Description: as §3, §4, §5, §6, §7

birds-eye speedwell = assay: Test Example 3: weedkilling efficacy through soil treatment; p: birds-eye speedwell
Method in brief: as §2

directly sown rice [13] = assay: Test Example 3: soil treatment, effect on crop; b: directly sown rice
Method in brief: as §2

Italian ryegrass [14] = assay: Test Example 4: weedkilling efficacy by foliar treatment; I: Italian ryegrass
Method in brief: as §1

common wind-grass [15] = assay: Test Example 3: weedkilling efficacy through soil treatment; J: common wind-grass
Method in brief: as §2

green foxtail [16] = assay: Test Example 4: weedkilling efficacy by foliar treatment; E: green foxtail
Method in brief: as §1

Indian mallow [17] = assay: Test Example 3: weedkilling efficacy through soil treatment; K: Indian mallow
Method in brief: as §2

rapeseed [18] = assay: Test Example 3: soil treatment, effect on crop; g: rapeseed
Method in brief: as §2

barnyard grass [19] = assay: Test Example 2: weedkilling efficacy, growth period weed treatment in the submerged state; A: barnyard grass
Method in brief: (§9)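 Seedlings at 1-2 leaves in 4 cm-deep submerged alluvial soil received emulsion formulations on the water surface, dosed per hectare; effects were judged 3 weeks on.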

beet [20] = assay: Test Example 4: foliar treatment, effect on crop; f: beet
Method in brief: as §1

barnyard grass [21] = assay: Test Example 1: weedkilling efficacy, preemergent weed treatment in the submerged state; A: barnyard grass
Method in brief: as §8

catchweed = assay: Test Example 4: weedkilling efficacy by foliar treatment; O: catchweed
Method in brief: as §1

Italian ryegrass [22] = assay: Test Example 3: weedkilling efficacy through soil treatment; I: Italian ryegrass
Method in brief: as §2

wheat [23] = assay: Test Example 4: foliar treatment, effect on crop; e: wheat
Method in brief: as §1

oval-leafed pondweed [24] = assay: Test Example 2: weedkilling efficacy, growth period weed treatment in the submerged state; C: oval-leafed pondweed
Method in brief: as §9

barnyard grass [25] = assay: Test Example 4: weedkilling efficacy by foliar treatment; F: barnyard grass
Description: as §3, §4, §5, §6, §7

soybean [26] = assay: Test Example 4: foliar treatment, effect on crop; d: soybean
Method in brief: as §1

chickweed [27] = assay: Test Example 3: weedkilling efficacy through soil treatment; N: chickweed
Method in brief: as §2

barnyard grass [28] = assay: Test Example 3: weedkilling efficacy through soil treatment; F: barnyard grass
Method in brief: as §2

bulrush [29] = assay: Test Example 2: weedkilling efficacy, growth period weed treatment in the submerged state; B: bulrush
Method in brief: as §9

corn [30] = assay: Test Example 4: foliar treatment, effect on crop; c: corn
Method in brief: as §1

fig-leafed goosefoot [31] = assay: Test Example 3: weedkilling efficacy through soil treatment; M: fig-leafed goosefoot
Method in brief: as §2

black-grass [32] = assay: Test Example 3: weedkilling efficacy through soil treatment; H: black-grass
Method in brief: as §2

redroot pigweed [33] = assay: Test Example 4: weedkilling efficacy by foliar treatment; L: redroot pigweed
Method in brief: as §1

soybean [34] = assay: Test Example 3: soil treatment, effect on crop; d: soybean
Method in brief: as §2

chickweed [35] = assay: Test Example 4: weedkilling efficacy by foliar treatment; N: chickweed
Method in brief: as §1

crabgrass [36] = assay: Test Example 3: weedkilling efficacy through soil treatment; D: crabgrass
Method in brief: as §2

redroot pigweed [37] = assay: Test Example 3: weedkilling efficacy through soil treatment; L: redroot pigweed
Method in brief: as §2

wild oat [38] = assay: Test Example 3: weedkilling efficacy through soil treatment; G: wild oat
Method in brief: as §2

transplanted rice = assay: Test Example 1: preemergent weed treatment in the submerged state, effect on crop; a: transplanted rice
Method in brief: as §8

corn [39] = assay: Test Example 3: soil treatment, effect on crop; c: corn
Method in brief: as §2

oval-leafed pondweed [40] = assay: Test Example 1: weedkilling efficacy, preemergent weed treatment in the submerged state; C: oval-leafed pondweed
Method in brief: as §8

CC1=C(c2cccnc2F)C(=O)N(C(C)(C)C(=O)Nc2cc(C)cc(Cl)n2)CO1 [B-2-15]
H (black-grass) weedkilling efficacy grade (black-grass [1]): 4 (weed kill ratio 70% or more, less than 90%) | f (beet) effect on crop grade (beet [2]): 2 (weed kill ratio 20% or more, less than 40%) | K (Indian mallow) weedkilling efficacy grade (Indian mallow [3]): 1 (weed kill ratio 5% or more, less than 20%) | b (directly sown rice) effect on crop grade (directly sown rice [4]): 5 (weed kill ratio 90% or more, (practically complete withering)) | G (wild oat) weedkilling efficacy grade (wild oat [5]): 3 (weed kill ratio 40% or more, less than 70%) | g (rapeseed) effect on crop grade (rapeseed [6]): 4 (weed kill ratio 70% or more, less than 90%) | M (fig-leafed goosefoot) weedkilling efficacy grade (fig-leafed goosefoot [7]): 4 (weed kill ratio 70% or more, less than 90%) | e (wheat) effect on crop grade (wheat [8]): 0 (weed kill ratio 5% or less (practically no effect)) | E (green foxtail) weedkilling efficacy grade (green foxtail [9]): 5 (weed kill ratio 90% or more, (practically complete withering)) | B (bulrush) weedkilling efficacy grade (bulrush [10]): 5 (weed kill ratio 90% or more, (practically complete withering)) | D (crabgrass) weedkilling efficacy grade (crabgrass [11]): 4 (weed kill ratio 70% or more, less than 90%) | J (common wind-grass) weedkilling efficacy grade (common wind-grass [12]): 5 (weed kill ratio 90% or more, (practically complete withering)) | P (birds-eye speedwell) weedkilling efficacy grade (birds-eye speedwell): 4 (weed kill ratio 70% or more, less than 90%) | b (directly sown rice) effect on crop grade (directly sown rice [13]): 5 (weed kill ratio 90% or more, (practically complete withering)) | I (Italian ryegrass) weedkilling efficacy grade (Italian ryegrass [14]): 5 (weed kill ratio 90% or more, (practically complete withering)) | J (common wind-grass) weedkilling efficacy grade (common wind-grass [15]): 5 (weed kill ratio 90% or more, (practically complete withering)) | E (green foxtail) weedkilling efficacy grade (green foxtail [16]): 5 (weed kill ratio 90% or more, (practically complete withering)) | K (Indian mallow) weedkilling efficacy grade (Indian mallow [17]): 0 (weed kill ratio 5% or less (practically no effect)) | g (rapeseed) effect on crop grade (rapeseed [18]): 2 (weed kill ratio 20% or more, less than 40%) | A (barnyard grass) weedkilling efficacy grade (barnyard grass [19]): 4 (weed kill ratio 70% or more, less than 90%) | f (beet) effect on crop grade (beet [20]): 3 (weed kill ratio 40% or more, less than 70%) | A (barnyard grass) weedkilling efficacy grade (barnyard grass [21]): 5 (weed kill ratio 90% or more, (practically complete withering)) | O (catchweed) weedkilling efficacy grade (catchweed): 3 (weed kill ratio 40% or more, less than 70%) | I (Italian ryegrass) weedkilling efficacy grade (Italian ryegrass [22]): 5 (weed kill ratio 90% or more, (practically complete withering)) | e (wheat) effect on crop grade (wheat [23]): 2 (weed kill ratio 20% or more, less than 40%) | C (oval-leafed pondweed) weedkilling efficacy grade (oval-leafed pondweed [24]): 5 (weed kill ratio 90% or more, (practically complete withering)) | F (barnyard grass) weedkilling efficacy grade (barnyard grass [25]): 4 (weed kill ratio 70% or more, less than 90%) | d (soybean) effect on crop grade (soybean [26]): 1 (weed kill ratio 5% or more, less than 20%) | N (chickweed) weedkilling efficacy grade (chickweed [27]): 2 (weed kill ratio 20% or more, less than 40%) | F (barnyard grass) weedkilling efficacy grade (barnyard grass [28]): 5 (weed kill ratio 90% or more, (practically complete withering)) | B (bulrush) weedkilling efficacy grade (bulrush [29]): 5 (weed kill ratio 90% or more, (practically complete withering)) | c (corn) effect on crop grade (corn [30]): 4 (weed kill ratio 70% or more, less than 90%) | M (fig-leafed goosefoot) weedkilling efficacy grade (fig-leafed goosefoot [31]): 3 (weed kill ratio 40% or more, less than 70%) | H (black-grass) weedkilling efficacy grade (black-grass [32]): 5 (weed kill ratio 90% or more, (practically complete withering)) | L (redroot pigweed) weedkilling efficacy grade (redroot pigweed [33]): 2 (weed kill ratio 20% or more, less than 40%) | d (soybean) effect on crop grade (soybean [34]): 0 (weed kill ratio 5% or less (practically no effect)) | N (chickweed) weedkilling efficacy grade (chickweed [35]): 4 (weed kill ratio 70% or more, less than 90%) | D (crabgrass) weedkilling efficacy grade (crabgrass [36]): 5 (weed kill ratio 90% or more, (practically complete withering)) | L (redroot pigweed) weedkilling efficacy grade (redroot pigweed [37]): 0 (weed kill ratio 5% or less (practically no effect)) | G (wild oat) weedkilling efficacy grade (wild oat [38]): 3 (weed kill ratio 40% or more, less than 70%) | a (transplanted rice) effect on crop grade (transplanted rice): 3 (weed kill ratio 40% or more, less than 70%) | c (corn) effect on crop grade (corn [39]): 0 (weed kill ratio 5% or less (practically no effect)) | C (oval-leafed pondweed) weedkilling efficacy grade (oval-leafed pondweed [40]): 5 (weed kill ratio 90% or more, (practically complete withering))
